Publication PMC12264551 (Molecular Pharmacology, 2025)

Assays:
VPAC1R [1] = molecular target: T1, VPAC1R (Homo sapiens, UniProt P32241); assay: Live cell cAMP accumulation (GloSensor), COS-7 cells transfected with VPAC1R; type: cell-based; design: host or cells: COS-7; settings: ATP […] + VIP 0.1 nM
T1 sequence (P32241 31-457): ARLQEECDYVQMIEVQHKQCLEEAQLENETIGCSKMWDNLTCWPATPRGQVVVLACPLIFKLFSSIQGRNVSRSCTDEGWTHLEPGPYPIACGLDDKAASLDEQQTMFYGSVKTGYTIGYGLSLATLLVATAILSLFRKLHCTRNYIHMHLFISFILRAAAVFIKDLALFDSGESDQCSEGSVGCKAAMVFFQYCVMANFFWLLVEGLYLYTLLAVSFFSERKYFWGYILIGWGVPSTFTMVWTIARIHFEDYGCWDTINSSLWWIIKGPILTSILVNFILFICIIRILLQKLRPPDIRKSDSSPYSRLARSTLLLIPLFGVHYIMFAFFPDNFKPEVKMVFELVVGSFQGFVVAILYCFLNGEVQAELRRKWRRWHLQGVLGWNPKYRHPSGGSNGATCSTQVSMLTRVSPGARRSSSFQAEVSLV

calcitonin receptor [2] = molecular target: T2, calcitonin receptor (Homo sapiens, UniProt P30988); assay: Live cell cAMP accumulation (GloSensor), COS-7 cells transfected with calcitonin receptor; type: cell-based; design: host or cells: COS-7 (African monkey kidney) in A3; settings: ATP […] + calcitonin 1 nM
T2 sequence (P30988 25-474): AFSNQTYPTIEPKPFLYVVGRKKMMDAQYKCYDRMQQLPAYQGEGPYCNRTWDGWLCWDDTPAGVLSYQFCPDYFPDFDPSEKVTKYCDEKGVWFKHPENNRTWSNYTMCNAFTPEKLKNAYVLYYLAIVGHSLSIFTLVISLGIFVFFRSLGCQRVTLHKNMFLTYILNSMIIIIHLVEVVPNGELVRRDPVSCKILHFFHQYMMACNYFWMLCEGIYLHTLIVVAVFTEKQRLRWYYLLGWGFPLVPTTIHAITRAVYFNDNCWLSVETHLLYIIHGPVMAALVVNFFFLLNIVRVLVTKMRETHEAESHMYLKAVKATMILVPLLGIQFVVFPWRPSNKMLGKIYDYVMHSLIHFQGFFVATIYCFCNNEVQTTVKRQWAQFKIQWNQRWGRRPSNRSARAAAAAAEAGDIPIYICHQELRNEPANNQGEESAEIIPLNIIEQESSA

PTH1R = settings: ref Kim et al, 2018, cited from earlier work
Excerpt: Extracellular nucleotides are known for their ability to act as purinoceptor agonists ([Burnstock, 2007]).

VPAC1R [3] = molecular target: T1, VPAC1R; assay: Live cell cAMP accumulation (GloSensor), SaOS-2 cells with endogenous VPAC1R; type: cell-based; design: SaOS-2 cells endogenously express VPAC1R; endogenous in cells; host or cells: SaOS-2; settings: ATP […] + VIP 1 nM
[4] = molecular target: T3, CRLR + RAMP2 (adrenomedullin 1 receptor) (Homo sapiens, UniProt O60895+Q16602); assay: Live cell cAMP accumulation (GloSensor), COS-7 cells transfected with CRLR + RAMP2; type: cell-based; settings: ATP […] + CGRP 10 nM, RAMP2, COS-7
T3 construct: RAMP plasmid gift of Dr Patrick Sexton; host or cells: COS-7

[5] = molecular target: T4, CRLR + RAMP1 (CGRP receptor) (Homo sapiens, UniProt O60894+Q16602); assay: Live cell cAMP accumulation (GloSensor), COS-7 cells transfected with CRLR + RAMP1; type: cell-based; settings: RAMP1, COS-7
T4 construct: RAMP plasmid gift of Dr Patrick Sexton; host or cells: COS-7

VPAC2R = molecular target: T5, VPAC2R (Homo sapiens, UniProt P41587); assay: Live cell cAMP accumulation (GloSensor), COS-7 cells transfected with VPAC2R; type: cell-based
T5 construct: host or cells: COS-7
T5 sequence (P41587 24-438): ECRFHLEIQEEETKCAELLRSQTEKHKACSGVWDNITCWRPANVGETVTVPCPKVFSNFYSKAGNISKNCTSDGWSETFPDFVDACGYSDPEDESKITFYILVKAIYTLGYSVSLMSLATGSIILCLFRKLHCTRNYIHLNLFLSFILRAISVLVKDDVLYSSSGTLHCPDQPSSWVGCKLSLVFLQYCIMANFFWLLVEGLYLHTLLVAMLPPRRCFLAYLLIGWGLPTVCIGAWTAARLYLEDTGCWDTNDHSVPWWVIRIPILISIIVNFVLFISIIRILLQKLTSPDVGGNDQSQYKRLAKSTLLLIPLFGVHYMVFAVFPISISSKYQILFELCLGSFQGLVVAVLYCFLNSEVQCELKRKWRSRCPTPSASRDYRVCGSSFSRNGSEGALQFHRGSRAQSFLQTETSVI

calcitonin receptor [6] = molecular target: T2, calcitonin receptor; assay: Live cell cAMP accumulation (GloSensor), UMR-106 cells transfected with calcitonin receptor; type: cell-based; design: host or cells: UMR-106 (rat osteoblast-like) in A1; COS-7 (African monkey kidney) in A3; settings: ATP […] + calcitonin 1 nM
PAC1R = molecular target: T6, PAC1R (Homo sapiens, UniProt P41586); assay: Live cell cAMP accumulation (GloSensor), COS-7 cells transfected with PAC1R; type: cell-based; settings: ATP […] + PACAP 0.1 nM
T6 construct: host or cells: COS-7
T6 sequence (P41586 21-468): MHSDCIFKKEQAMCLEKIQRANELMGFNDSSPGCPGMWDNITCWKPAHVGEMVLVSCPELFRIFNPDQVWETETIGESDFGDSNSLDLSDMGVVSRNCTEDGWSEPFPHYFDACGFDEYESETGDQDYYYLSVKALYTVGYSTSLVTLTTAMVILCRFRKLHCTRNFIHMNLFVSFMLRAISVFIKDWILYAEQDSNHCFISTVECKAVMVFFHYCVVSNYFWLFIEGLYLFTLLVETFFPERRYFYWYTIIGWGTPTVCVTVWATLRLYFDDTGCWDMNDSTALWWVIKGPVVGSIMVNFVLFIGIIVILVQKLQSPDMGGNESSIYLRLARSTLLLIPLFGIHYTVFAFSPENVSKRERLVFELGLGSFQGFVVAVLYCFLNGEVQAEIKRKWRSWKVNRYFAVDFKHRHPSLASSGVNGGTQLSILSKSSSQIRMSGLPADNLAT

class B GPCRs = assay: Signaling of class B GPCRs tested (summary over receptors); type: cell-based; settings: CMP in place of ATP
Experimental: Cells were treated with IBMX (200–500 μM) and were further incubated for 20 minutes at room temperature. […] The emitted luminescence was measured at room temperature with a 1-second integration time at 1.5-minute intervals for a total of 45 minutes.
Data shown are means ± SEM.
To assess the time-to-maximum-slope (ie, “lag time”) for each time-course curve, we determined the time elapsed from the addition of agonist (time 0) to the first data point of the maximum slope. This procedure is illustrated in Supplemental Fig. 1.

T4 sequence (Q16602 23-461): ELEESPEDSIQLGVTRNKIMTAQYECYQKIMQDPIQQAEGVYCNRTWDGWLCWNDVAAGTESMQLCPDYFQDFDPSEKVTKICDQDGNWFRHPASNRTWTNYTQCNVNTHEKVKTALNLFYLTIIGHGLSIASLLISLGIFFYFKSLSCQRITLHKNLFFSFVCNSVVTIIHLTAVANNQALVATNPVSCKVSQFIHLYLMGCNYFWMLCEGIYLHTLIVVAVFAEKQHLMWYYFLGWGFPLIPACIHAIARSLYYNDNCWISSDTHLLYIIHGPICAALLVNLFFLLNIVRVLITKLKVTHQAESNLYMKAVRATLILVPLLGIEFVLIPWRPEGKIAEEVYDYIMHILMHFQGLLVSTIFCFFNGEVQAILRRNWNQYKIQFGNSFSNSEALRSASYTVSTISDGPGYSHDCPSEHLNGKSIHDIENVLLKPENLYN
T4 sequence (O60894 27-148): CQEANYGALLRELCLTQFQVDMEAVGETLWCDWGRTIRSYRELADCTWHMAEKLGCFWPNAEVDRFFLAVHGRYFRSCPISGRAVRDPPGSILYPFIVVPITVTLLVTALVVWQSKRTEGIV
T3 sequence (Q16602 23-461): as the sequence (Q16602 23-461) above
T3 sequence (O60895 43-175): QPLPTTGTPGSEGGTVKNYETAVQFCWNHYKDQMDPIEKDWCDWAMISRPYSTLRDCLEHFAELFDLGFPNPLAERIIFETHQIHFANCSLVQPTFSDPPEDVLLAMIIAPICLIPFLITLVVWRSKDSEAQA

Nc1ncnc2c1ncn2[C@@H]1O[C@H](COP(=O)(O)OP(=O)(O)OP(=O)(O)O)[C@@H](O)[C@H]1O [ATP, Adenosine 5'-triphosphate]
effect on VIP-induced cAMP accumulation (VPAC1R [1]): markedly enhanced | effect on rate of calcitonin-induced cAMP accumulation (calcitonin receptor [2]): markedly enhanced | effect on PTH1R signaling in absence of added agonist (PTH1R; extracellular ATP alone): no effect on PTH1R signaling in the absence of added agonist | effect on agonist-induced cAMP elevation and β-arrestin recruitment (PTH1R; extracellular ATP with PTH1R agonist): strongly enhance | effect on VIP-induced cAMP accumulation (VPAC1R [3]): enhanced VIP-induced cAMP accumulation | effect on CGRP-induced cAMP accumulation [4]: markedly enhanced | Hill coefficient / slope factor ([5]; ATP + CGRP 10 nM, 4-parameter fit, n = 3): 3.2 | effect on CGRP-induced cAMP accumulation ([5]; ATP […] + CGRP 10 nM): markedly enhanced | EC50 ([5]; EC50 of ATP for potentiation of CGRP signaling, ATP + CGRP 10 nM, 4-parameter fit, n = 3): 500 µM | effect on VIP-induced cAMP accumulation (VPAC2R; ATP […] + VIP 0.1 nM): markedly enhanced | effect on calcitonin-induced cAMP accumulation (calcitonin receptor [6]): markedly enhanced | effect on PACAP-induced cAMP accumulation (PAC1R): markedly enhanced

Nc1ccn([C@@H]2O[C@H](COP(=O)(O)O)[C@@H](O)[C@H]2O)c(=O)n1 [CMP, cytidine 5'-monophosphate]
enhancing effect of ATP (class B GPCRs): mimicked

CC[C@H](C)[C@H](NC(=O)[C@H](CO)NC(=O)[C@H](CC(N)=O)NC(=O)[C@H](CC(C)C)NC(=O)[C@H](Cc1ccc(O)cc1)NC(=O)[C@H](CCCCN)NC(=O)[C@H](CCCCN)NC(=O)[C@@H](NC(=O)[C@H](C)NC(=O)[C@H](CCSC)NC(=O)[C@H](CCC(N)=O)NC(=O)[C@H](CCCCN)NC(=O)[C@H](CCCNC(=N)N)NC(=O)[C@H](CC(C)C)NC(=O)[C@H](CCCNC(=N)N)NC(=O)[C@@H](NC(=O)[C@H](Cc1ccc(O)cc1)NC(=O)[C@H](CC(N)=O)NC(=O)[C@H](CC(=O)O)NC(=O)[C@@H](NC(=O)[C@H](Cc1ccccc1)NC(=O)[C@@H](NC(=O)[C@H](C)NC(=O)[C@H](CC(=O)O)NC(=O)[C@H](CO)NC(=O)[C@@H](N)Cc1c[nH]cn1)C(C)C)[C@@H](C)O)[C@@H](C)O)C(C)C)C(=O)N[C@@H](CC(C)C)C(=O)N[C@@H](CC(N)=O)C(N)=O [VIP, vasoactive intestinal peptide]
Normalized Maximum (VPAC2R; VIP + vehicle, Fig. 6H, VPAC2R, fraction of greatest slope, ± SEM, n = 3-5): 0.94 ± 0.01
